We go through 44 molecules from patent publication US20230348426A1, “OXOPYRROLIDINE FPR2 AGONISTS” (Bristol-Myers Squibb Company, priority 2020, published 2023).

The target in assay [1] is human FPR1 (Homo sapiens (Human), UniProt P21462). Description: FPR1 cyclic adenosine monophosphate (cAMP) assay. The class given is cell-based. To be noted: CHO cells overexpressing human FPR1; forskolin 10 µM; inhibition of cAMP production; read-out: hFPR1 cAMP EC50. The procedure, abridged: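 CHO cells overexpressing human FPR1 (4,000 cells/well) stimulated with 10 µM forskolin plus 200 µM IBMX in the presence of compound (0.020 nM–100 µM, 1% DMSO), 30 min at room temperature. Intracellular cAMP measured by HTRF. Inhibition of cAMP production fitted to a 4-parameter logistic equation.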
Sequence of human FPR1 (P21462 whole entry): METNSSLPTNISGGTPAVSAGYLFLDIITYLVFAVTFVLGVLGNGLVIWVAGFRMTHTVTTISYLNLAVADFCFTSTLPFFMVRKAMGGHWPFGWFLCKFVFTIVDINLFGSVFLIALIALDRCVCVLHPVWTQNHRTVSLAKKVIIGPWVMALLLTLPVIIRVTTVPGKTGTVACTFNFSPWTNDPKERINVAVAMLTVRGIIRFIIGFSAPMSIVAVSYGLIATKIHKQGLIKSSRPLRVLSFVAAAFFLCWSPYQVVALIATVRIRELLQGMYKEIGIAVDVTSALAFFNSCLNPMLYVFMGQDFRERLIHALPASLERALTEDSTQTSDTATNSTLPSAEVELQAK

The target in assay [2] is human FPR2 (Homo sapiens (Human), UniProt P25090). The assay is described as follows: FPR2 cyclic adenosine monophosphate (cAMP) assay. The format is cell-based. Particulars: CHO cells overexpressing human FPR2; forskolin 5 µM; inhibition of cAMP production; read-out: hFPR2 cAMP2 EC50. The procedure, abridged: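 CHO cells overexpressing human FPR2 (2,000/well) incubated 30 min at room temperature with compound (0.020 nM–100 µM, 1% DMSO), 5 µM forskolin and 200 µM IBMX.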
Sequence of human FPR2 (P25090 whole entry): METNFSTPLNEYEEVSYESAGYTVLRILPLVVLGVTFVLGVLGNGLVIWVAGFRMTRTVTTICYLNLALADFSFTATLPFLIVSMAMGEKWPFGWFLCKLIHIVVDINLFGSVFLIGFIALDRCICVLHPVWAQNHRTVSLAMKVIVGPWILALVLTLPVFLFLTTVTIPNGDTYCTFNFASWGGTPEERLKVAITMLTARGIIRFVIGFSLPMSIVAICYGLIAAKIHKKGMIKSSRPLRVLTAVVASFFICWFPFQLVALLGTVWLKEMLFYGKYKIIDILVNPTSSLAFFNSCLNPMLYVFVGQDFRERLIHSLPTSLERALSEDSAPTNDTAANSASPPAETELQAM

The structures appear in SMILES notation. pEC50: −log10 of the molar value.

For `O=C(N[C@@H]1C(=O)N(c2cccn(CC(O)C(F)(F)F)c2=O)C[C@H]1c1ccc(Cl)cc1)c1ccc(OC(F)(F)F)cc1` (stereo partly shown) [Example 609], the figures for the negative-log EC50 (pEC50) in assay [1] and in assay [2] were 7.55 and 8.74, respectively.

Regarding `COc1ccc([C@@H]2CN(c3c(C)ccn(CC4CC4)c3=O)C(=O)[C@H]2NC(=O)c2ccc(OC(F)F)cc2)cc1` [Example 610], the values for the negative-log EC50 (pEC50) in assay [1] and in assay [2] were 9.52 and 9.00, respectively.

With `COc1cc(F)c([C@@H]2CN(c3c(C)ccn(CCC(F)(F)F)c3=O)C(=O)[C@H]2NC(=O)c2ccc(Cl)cc2)c(F)c1` [Example 611], the pEC50 in assay [1] is 8.23; in assay [2], 8.62.

In the case of `COc1cc(F)c([C@@H]2CN(c3c(C)ccn(C4CCNC4)c3=O)C(=O)[C@H]2NC(=O)c2ccc(OC(F)F)cc2)c(F)c1` (stereo partly shown) [Example 612], the pEC50 in assay [1] was 7.48; in assay [2], 7.87.

As for `COc1cc(F)c([C@@H]2CN(c3c(C)ccn(C4CCNC4)c3=O)C(=O)[C@H]2NC(=O)c2ccc(OC(F)(F)F)cc2)c(F)c1` (stereo partly shown) [Example 613], the pEC50 in assay [1] was 8.03; in assay [2] it was 7.93.

With `COc1cc(F)c([C@@H]2CN(c3c(C)ccn(CC4CCO4)c3=O)C(=O)[C@H]2NC(=O)c2ccc(Cl)cc2)c(F)c1` (stereo partly shown) [Example 614], the pEC50 was 7.48 in assay [1] and 8.22 in assay [2].

On to `COc1cc(F)c([C@@H]2CN(c3c(C)ccn(CC4CCO4)c3=O)C(=O)[C@H]2NC(=O)c2ccc(OC(F)(F)F)cc2)c(F)c1` (stereo partly shown) [Example 615], for which the pEC50 was 8.28 in assay [1] and 8.06 in assay [2].

Take `COc1cc(F)c([C@@H]2CN(c3c(C)ccn(CC4CCO4)c3=O)C(=O)[C@H]2NC(=O)c2ccc(OC(F)F)cc2)c(F)c1` (stereo partly shown) [Example 616]: the pEC50 in assay [1] was 7.70; in assay [2], 8.03.

`COc1cc(F)c([C@@H]2CN(c3c(C)ccn(CC4CCO4)c3=O)C(=O)[C@H]2NC(=O)c2ccc(OC(F)F)cc2)c(F)c1` (stereo partly shown) [Example 617]: the negative-log EC50 (pEC50) in assay [1] is 7.74; in assay [2] it was 8.04.

For the molecule `COc1cc(F)c([C@@H]2CN(c3c(C)ccn(CC4CCO4)c3=O)C(=O)[C@H]2NC(=O)c2ccc(Cl)cc2)c(F)c1` (stereo partly shown) [Example 618], the pEC50 in assay [1] is 8.02; in assay [2] it was 9.00.

On to `COc1cc(F)c([C@@H]2CN(c3c(C)ccn(CC4CNC(=O)O4)c3=O)C(=O)[C@H]2NC(=O)c2ccc(OC(F)F)cc2)c(F)c1` (stereo partly shown) [Example 619], for which the pEC50 in assay [1] is 7.19; in assay [2], 8.03.

For `COc1ccc([C@@H]2CN(c3ccnn(CC(F)F)c3=O)C(=O)[C@H]2NC(=O)c2ccc(OC(F)F)cc2)c(F)c1` [Example 620], the values for the pEC50 in assay [1] and in assay [2] were 8.19 and 8.13, respectively.

In the case of `COc1cc(F)c([C@@H]2CN(c3c(C)ccn([C@H]4COC[C@@H]4O)c3=O)C(=O)[C@H]2NC(=O)c2ccc(Cl)cc2)c(F)c1` [Example 621], the pEC50 in assay [1] is 7.19; in assay [2] it was 7.05.

As to `COc1cc(F)c([C@@H]2CN(c3c(C)ccn([C@H]4COC[C@@H]4O)c3=O)C(=O)[C@H]2NC(=O)c2ccc(OC(F)(F)F)cc2)c(F)c1` [Example 622], the pEC50 is 8.66 in assay [1] and 8.08 in assay [2].

Regarding `COc1cc(F)c([C@@H]2CN(c3c(C)ccn([C@H]4COC[C@@H]4O)c3=O)C(=O)[C@H]2NC(=O)c2ccc(Cl)cc2)c(F)c1` [Example 623], the pEC50 in assay [1] was 6.80; in assay [2] it was 7.94.

On to `COc1cc(F)c([C@@H]2CN(c3c(C)ccn([C@H]4COC[C@@H]4O)c3=O)C(=O)[C@H]2NC(=O)c2ccc(OC(F)F)cc2)c(F)c1` [Example 624], for which the figures for the pEC50 in assay [1] and in assay [2] were 8.03 and 8.82, respectively.

With `COc1cc(F)c([C@@H]2CN(c3c(C)ccn(C4CCS(=O)(=O)CC4)c3=O)C(=O)[C@H]2NC(=O)c2ccc(OC(F)F)cc2)c(F)c1` [Example 626], the values for the pEC50 in assay [1] and in assay [2] were 7.89 and 9.15, respectively.

Consider `COc1cc(F)c([C@@H]2CN(c3c(C)ccn(C4CCS(=O)(=O)CC4)c3=O)C(=O)[C@H]2NC(=O)c2ccc(OC(F)(F)F)cc2)c(F)c1` [Example 627], for which the pEC50 is 8.70 in assay [1] and 8.07 in assay [2].

On to `COc1cc(F)c([C@@H]2CN(c3nn(C4COC4)c(=O)cc3C)C(=O)[C@H]2NC(=O)c2ccc(OC(F)F)cc2)c(F)c1` [Example 628], for which the pEC50 is 7.23 in assay [1] and 8.33 in assay [2].

With `COc1cc(F)c([C@@H]2CN(c3cn(C)nc3OC)C(=O)[C@H]2NC(=O)c2ccc(Cl)cc2)c(F)c1` [Example 629], the pEC50 in assay [1] is 6.17; in assay [2], 8.00.

`COc1cc(F)c([C@@H]2CN(c3cn(C)nc3OC)C(=O)[C@H]2NC(=O)c2ccc(OC(F)F)cc2)c(F)c1` [Example 630]: the pEC50 in assay [1] was 5.96; in assay [2], 8.28.

In the case of `COc1cc(F)c([C@@H]2CN(c3cn(C)nc3OC)C(=O)[C@H]2NC(=O)c2ccc(OC(F)(F)F)cc2)c(F)c1` [Example 631], the pEC50 is 6.80 in assay [1] and 8.00 in assay [2].

For `COc1ccc([C@@H]2CN(c3c(C)ccn(CC(F)F)c3=O)C(=O)[C@H]2NC(=O)c2ccc(OC(F)F)cc2)cc1` [Example 632], the results for the pEC50 in assay [1] and in assay [2] were 8.43 and 9.05, respectively.

With `COCCn1ccc(C)c(N2C[C@@H](c3c(F)cc(OC)cc3F)[C@H](NC(=O)c3ccc(Cl)cc3)C2=O)c1=O` [Example 633], the figures for the pEC50 in assay [1] and in assay [2] were 8.37 and 8.85, respectively.

On to `COc1cc(F)c([C@@H]2CN(c3c(C)ccn(CC(O)C(F)(F)F)c3=O)C(=O)[C@H]2NC(=O)c2ccc(OC(F)F)cc2)c(F)c1` (stereo partly shown) [Example 634], for which the pEC50 was 8.64 in assay [1] and 8.70 in assay [2].

As for `COCCn1ccc(C)c(N2C[C@@H](c3ccc(OC)cc3F)[C@H](NC(=O)c3ccc(Cl)cc3)C2=O)c1=O` [Example 635], the pEC50 in assay [1] is 8.20; in assay [2], 8.43.

For `COc1ccc([C@@H]2CN(c3c(C)ccn(CCO)c3=O)C(=O)[C@H]2NC(=O)c2ccc(OC(F)(F)F)cc2)c(F)c1` [Example 636], the negative logarithm of the EC50 (pEC50) is 8.49 in assay [1] and 8.80 in assay [2].

With `COc1cc(F)c([C@@H]2CN(c3c(C)ccn(C4COC4)c3=O)C(=O)[C@H]2NC(=O)c2ccc(OC(F)(F)F)cc2)c(F)c1` [Example 637], the pEC50 in assay [1] was 8.24; in assay [2] it was 8.18.

Take `CCn1cc(C)c(C)c(N2C[C@@H](c3c(F)cc(OC)cc3F)C(NC(=O)c3ccc(OC(F)(F)F)cc3)C2=O)c1=O` (stereo partly shown) [Example 638]: the pEC50 in assay [1] is 6.54; in assay [2], 7.85.

On to `CCn1cc(C)c(C)c(N2C[C@@H](c3c(F)cc(OC)cc3F)C(NC(=O)c3ccc(OC(F)(F)F)cc3)C2=O)c1=O` (stereo partly shown) [Example 639], for which the pEC50 in assay [1] is 7.24; in assay [2] it was 8.24.

As for `COCCn1cc(C)c(C)c(N2C[C@@H](c3c(F)cc(OC)cc3F)C(NC(=O)c3ccc(Cl)cc3)C2=O)c1=O` (stereo partly shown) [Example 640], the pEC50 in assay [1] was 5.92; in assay [2], 8.66.

Regarding `COCCn1cc(C)c(C)c(N2C[C@@H](c3c(F)cc(OC)cc3F)C(NC(=O)c3ccc(Cl)cc3)C2=O)c1=O` (stereo partly shown) [Example 641], the pEC50 in assay [1] is 6.00; in assay [2], 8.55.

`CCn1cc(C)c(C)c(N2C[C@@H](c3c(F)cc(OC)cc3F)[C@H](NC(=O)c3ccc(OC(F)F)cc3)C2=O)c1=O` [Example 642]: the values for the pEC50 in assay [1] and in assay [2] were 6.24 and 7.82, respectively.

As to `COc1ccc([C@@H]2CN(c3cccn(CC(O)C(F)(F)F)c3=O)C(=O)[C@H]2NC(=O)c2ccc(OC(F)F)cc2)cc1` (stereo partly shown) [Example 643], the values for the pEC50 in assay [1] and in assay [2] were 7.12 and 8.59, respectively.

Regarding `COc1ccc([C@@H]2CN(c3cccn(CC(O)C(F)(F)F)c3=O)C(=O)[C@H]2NC(=O)c2ccc(OC(F)F)cc2)cc1` (stereo partly shown) [Example 644], the figures for the pEC50 in assay [1] and in assay [2] were 7.19 and 8.68, respectively.

As for `COc1ccc([C@@H]2CN(c3ccnn(CCC(F)(F)F)c3=O)C(=O)[C@H]2NC(=O)c2ccc(OC(F)F)cc2)cc1` [Example 645], the pEC50 was 6.72 in assay [1] and 8.55 in assay [2].

Consider `COc1cc(F)c([C@@H]2CN(c3c4c(cn(CCO)c3=O)CCCC4)C(=O)[C@H]2NC(=O)c2ccc(OC(F)F)cc2)c(F)c1` [Example 646], for which the results for the negative-log EC50 (pEC50) in assay [1] and in assay [2] were 6.17 and 7.80, respectively.

On to `CCn1ccc(N2C[C@@H](c3c(F)cc(OC)cc3F)[C@H](NC(=O)c3ccc(Cl)cc3)C2=O)n1` [Example 647], for which the negative-log EC50 (pEC50) in assay [1] was 7.66; in assay [2] it was 8.82.

On to `CCn1ccc(N2C[C@@H](c3c(F)cc(OC)cc3F)[C@H](NC(=O)c3ccc(OC(F)F)cc3)C2=O)n1` [Example 648], for which the values for the negative-log EC50 (pEC50) in assay [1] and in assay [2] were 8.39 and 9.15, respectively.

Regarding `CCn1ccc(N2C[C@@H](c3c(F)cc(OC)cc3F)[C@H](NC(=O)c3ccc(OC(F)(F)F)cc3)C2=O)n1` [Example 649], the negative-log EC50 (pEC50) in assay [1] was 8.11; in assay [2], 8.89.

Turning to `COCCn1ccnc1N1C[C@@H](c2c(F)cc(OC)cc2F)[C@H](NC(=O)c2ccc(Cl)cc2)C1=O` [Example 650], the figures for the negative logarithm of the EC50 (pEC50) in assay [1] and in assay [2] were 5.77 and 7.96, respectively.

`COCCn1ccnc1N1C[C@@H](c2c(F)cc(OC)cc2F)[C@H](NC(=O)c2ccc(OC(F)F)cc2)C1=O` [Example 651]: the pEC50 was 6.11 in assay [1] and 8.46 in assay [2].

As for `COCCn1ccnc1N1C[C@@H](c2c(F)cc(OC)cc2F)[C@H](NC(=O)c2ccc(OC(F)(F)F)cc2)C1=O` [Example 652], the values for the negative logarithm of the EC50 (pEC50) in assay [1] and in assay [2] were 6.15 and 8.14, respectively.

Take `COc1cc(F)c([C@@H]2CN(c3c(C)ccn(CC(F)F)c3=O)C(=O)[C@H]2NC(=O)c2ccc(Cl)cc2)c(F)c1` [Example 653]: the pEC50 was 7.92 in assay [1] and 8.48 in assay [2].

As usually defined, the pEC50 is the negative decadic logarithm of the EC50, by convention in mol/L.
